# Where two headings read alike, the source gives them in different places.
# Assays:
# T. brucei = T. brucei proliferation inhibition assay; assay type: cell-based, Trypanosoma brucei; conditions: read-out: T. brucei EC50 ± S.D.
# T. cruzi CA-I/72 = test: T. cruzi in vitro assay, C2C12 host cell; assay type: cell-based, Trypanosoma cruzi
# [1] = test system: Leishmania major amastigotes; test: Leishmania major amastigote assay; assay type: cell-based; conditions: read-out: L. maj EC50
# L. donovani = L. donovani in vitro assay; assay type: cell-based, Leishmania donovani
# [2] = Leishmania donovani, read-out: L. don EC50, B10R host cell line
# [3] = Trypanosoma cruzi, C2C12, read-out: T. cruzi EC50
Compound,EC50 ([1]; amastigotes),EC50 ([1]; Leishmania major),EC50 (T. brucei),"EC50 (T. cruzi CA-I/72; read-out: T. cruzi EC50, C2C12 host cell)",EC50 (L. donovani; [2]),EC50 (T. cruzi CA-I/72; [3]),EC50 (T. brucei; Trypanosoma brucei),"EC50 (L. donovani; read-out: L. don EC50, B10R host cell line)"
"C[C@@H]1[C@H](O)[C@@H](C)/C=C/C=C/C=C/C=C/C=C/C=C/C=C/[C@H](O[C@@H]2O[C@H](C)[C@@H](O)[C@H](N)[C@@H]2O)C[C@@H]2O[C@](O)(C[C@@H](O)C[C@@H](O)[C@H](O)CC[C@@H](O)C[C@@H](O)CC(=O)O[C@H]1C)C[C@H](O)[C@H]2C(=O)O [Amphotericin B, reference compound]",–,–,–,–,0.07 µM,–,–,–
"O=C(Cn1ccnc1[N+](=O)[O-])NCc1ccccc1 [Benznidazole, reference compound]",–,–,–,–,–,3.77 µM,–,–
"Cc1ccc(Nc2cnnc3ccc(-c4ccc(S(=O)(=O)N5CCN(C)CC5)cc4)cc23)cn1 [Compound 13a, 6-(4-((4-Methylpiperazin-1-yl)sulfonyl)phenyl)-N-(6-methylpyridin-3-yl)cinnolin-4-amine]",–,> 21 µM,–,–,> 10 µM,8.2 µM,1.3 ± 0.027 µM,–
"CN1CCN(S(=O)(=O)c2ccc(-c3ccc4nncc(Nc5ncc(Cl)cn5)c4c3)cc2)CC1 [Compound 14a, N-(5-Chloropyrimidin-2-yl)-6-(4-((4-methylpiperazin-1-yl)sulfonyl)phenyl)cinnolin-4-amine]",–,0.005 µM,–,–,–,4.1 µM,0.82 ± 0.19 µM,0.069 µM
"CN1CCN(S(=O)(=O)c2ccc(-c3ccc4nncc(Nc5cnccn5)c4c3)cc2)CC1 [Compound 15a, 6-(4-((4-Methylpiperazin-1-yl)sulfonyl)phenyl)-N-(pyrazin-2-yl)cinnolin-4-amine]",–,7.8 µM,–,–,> 10 µM,> 10 µM,1.2 ± 0.18 µM,–
"CN1CCN(S(=O)(=O)c2ccc(-c3ccc4c(Nc5cnccn5)cnnc4c3)cc2)CC1 [Compound 15b, 7-(4-((4-Methylpiperazin-1-yl)sulfonyl)phenyl)-N-(pyrazin-2-yl)cinnolin-4-amine]",–,> 22 µM,–,–,5.52 µM,6.5 ± 2.3 µM,9.7 ± 2.1 µM,–
"CN1CCN(S(=O)(=O)c2ccc(-c3ccc4nncc(Nc5ncccn5)c4c3)cc2)CC1 [Compound 16a, 6-(4-((4-Methylpiperazin-1-yl)sulfonyl)phenyl)-N-(pyrimidin-2-yl)cinnolin-4-amine]",–,> 22 µM,–,–,9 µM,> 10 µM,–,–
"CN1CCN(S(=O)(=O)c2ccc(-c3ccc4c(Nc5ncccn5)cnnc4c3)cc2)CC1 [Compound 16b, 7-(4-((4-Methylpiperazin-1-yl)sulfonyl)phenyl)-N-(pyrimidin-2-yl)cinnolin-4-amine]",–,> 11 µM,–,–,> 10 µM,> 10 µM,11 ± 1.5 µM,–
"COc1ccc(Nc2cnnc3ccc(-c4ccc(S(=O)(=O)N5CCN(C)CC5)cc4)cc23)cc1Cl [Compound 17a, N-(3-Chloro-4-methoxyphenyl)-6-(4-((4-methylpiperazin-1-yl)sulfonyl)phenyl)cinnolin-4-amine]",–,> 19 µM,–,–,9.3 µM,> 10 µM,1.6 ± 0.36 µM,–
"COc1ccc(Nc2cnnc3ccc(-c4ccc(S(=O)(=O)N5CCN(C)CC5)cc4)cc23)cc1 [Compound 18a, N-(4-Methoxyphenyl)-6-(4-((4-methylpiperazin-1-yl)sulfonyl)phenyl)cinnolin-4-amine]",–,> 20 µM,–,–,3.4 µM,8 µM,0.39 ± 0.2 µM,–

# Continued, in another order:
EC50 ([1]; amastigotes),EC50 ([1]; Leishmania major),Compound,EC50 (T. brucei),"EC50 (T. cruzi CA-I/72; read-out: T. cruzi EC50, C2C12 host cell)",EC50 (L. donovani; [2]),EC50 (T. cruzi CA-I/72; [3]),EC50 (T. brucei; Trypanosoma brucei),"EC50 (L. donovani; read-out: L. don EC50, B10R host cell line)"
> 3.6 µM,–,"7-(4-((4-Methyl-1,4-diazepan-1-yl)sulfonyl)phenyl)-N-(4-(trifluoromethoxy)phenyl)cinnolin-4-amine [Compound 20b]",0.58 ± 0.25 µM,> 10 µM,–,–,–,–
–,> 20 µM,"COc1ccc(Nc2cnnc3cc(-c4ccc(S(=O)(=O)N5CCN(C)CC5)cc4)ccc23)cc1 [Compound 18b, N-(4-Methoxyphenyl)-7-(4-((4-methylpiperazin-1-yl)sulfonyl)phenyl)cinnolin-4-amine]",–,–,–,3.2 µM,12 ± 0.63 µM,–
–,> 20 µM,"COc1ccc(Nc2cnnc3ccc(-c4ccc(S(=O)(=O)N5CCN(C)CC5)cc4)cc23)nc1 [Compound 19a, N-(5-Methoxypyridin-2-yl)-6-(4-((4-methylpiperazin-1-yl)sulfonyl)phenyl)cinnolin-4-amine]",–,–,4.9 µM,3.8 µM,1.9 ± 0.073 µM,–
–,> 20 µM,"COc1ccc(Nc2cnnc3cc(-c4ccc(S(=O)(=O)N5CCN(C)CC5)cc4)ccc23)nc1 [Compound 19b, N-(5-Methoxypyridin-2-yl)-7-(4-((4-methylpiperazin-1-yl)sulfonyl)phenyl)cinnolin-4-amine]",–,–,> 10 µM,> 10 µM,–,–
–,4.8 µM,"CN1CCN(S(=O)(=O)c2ccc(-c3ccc4nncc(Nc5ccc(OC(F)(F)F)cc5)c4c3)cc2)CC1 [Compound 20a, 6-(4-((4-Methylpiperazin-1-yl)sulfonyl)phenyl)-N-(4-(trifluoromethoxy)phenyl)cinnolin-4-amine]",–,–,0.11 µM,6.8 µM,0.35 ± 0.26 µM,–
–,> 4.1 µM,"COc1cnc(Nc2cnnc3ccc(-c4ccc(S(=O)(=O)N5CCN(C)CC5)cc4)cc23)nc1 [Compound 21a, N-(5-Methoxypyrimidin-2-yl)-6-(4-((4-methylpiperazin-1-yl)sulfonyl)phenyl)cinnolin-4-amine]",–,–,5.77 µM,1.3 µM,6.6 ± 1.7 µM,–
–,> 4.6 µM,"CN1CCN(c2ccc(-c3ccc4nncc(Nc5ncc(Cl)cn5)c4c3)cc2)CC1 [Compound 22a, N-(5-Chloropyrimidin-2-yl)-6-(4-(4-methylpiperazin-1-yl)phenyl)cinnolin-4-amine]",–,–,> 10 µM,0.31 µM,0.15 ± 0.068 µM,–
–,4.2 µM,"CN1CCN(c2ccc(-c3ccc4c(Nc5ncc(Cl)cn5)cnnc4c3)cc2)CC1 [Compound 22b, N-(5-Chloropyrimidin-2-yl)-7-(4-(4-methylpiperazin-1-yl)phenyl)cinnolin-4-amine]",–,–,> 10 µM,2.3 µM,0.72 ± 0.47 µM,–
–,> 24 µM,"COc1ccc(Nc2cnnc3cc(-c4ccc(N5CCN(C)CC5)cc4)ccc23)cc1 [Compound 23b, N-(4-Methoxyphenyl)-7-(4-(4-methylpiperazin-1-yl)phenyl)cinnolin-4-amine]",–,–,–,1.1 µM,0.078 ± 0.031 µM,–
–,> 4.6 µM,"CN1CCN(c2ncc(-c3ccc4nncc(Nc5ncc(Cl)cn5)c4c3)cn2)CC1 [Compound 26a, N-(5-Chloropyrimidin-2-yl)-6-(2-(4-methylpiperazin-1-yl)pyrimidin-5-yl)cinnolin-4-amine]",–,–,> 10 µM,2.7 µM,–,–
–,> 4.7 µM,"COc1ccc(Nc2cnnc3cc(-c4cnc(N5CCN(C)CC5)nc4)ccc23)cc1 [Compound 27b, N-(4-Methoxyphenyl)-7-(2-(4-methylpiperazin-1-yl)pyrimidin-5-yl)cinnolin-4-amine]",–,–,–,3.3 µM,0.36 ± 0.076 µM,–
–,> 23 µM,"COc1ccc(Nc2cnnc3cc(-c4cnc(N5CCCN(C)CC5)nc4)ccc23)cc1 [Compound 30b, N-(4-Methoxyphenyl)-7-(2-(4-methyl-1,4-diazepan-1-yl)pyrimidin-5-yl)cinnolin-4-amine]",–,–,–,0.29 µM,0.24 ± 0.088 µM,–
–,> 20 µM,"COc1cnc(Nc2cnnc3ccc(-c4ccc(S(=O)(=O)N5CCCN(C)CC5)cc4)cc23)nc1 [Compound 35a, N-(5-Methoxypyrimidin-2-yl)-6-(4-((4-methyl-1,4-diazepan-1-yl)sulfonyl)phenyl)cinnolin-4-amine]",–,–,–,> 10 µM,0.27 ± 0.008 µM,–

# Reference: publication PMC11915375 (ACS Infectious Diseases, 2025)
